Measured values taken from US10206904B2, “Licofelone derivatives and methods of use” (The Board of Regents of the University of Oklahoma, priority 2015, dated 2019).
Entries after “also recorded” stand apart in the source; their conditions may differ. Read-outs that look alike come from different tables or passages of the source.

Key:
[1] = for Major Organ Toxicity / Ulceration (Grade) Colon / Ulceration (Grade) Small Intestine / Ulceration (Grade) Stomach / Liver enzymes ALKP / Liver enzymes ALT / Liver enzymes AST / Liver enzymes LDH: male C57 mice; for Liver enzymes ALKP / Liver enzymes ALT / Liver enzymes AST / Liver enzymes LDH: Mean ± SEM
Protocol: Body weights and symptoms of toxicity were recorded twice weekly for 6 weeks. […] All organs were examined grossly for any abnormalities upon necropsy. Livers, kidney, stomach, intestinal tract, and blood were obtained from the animals and analyzed for Liver enzyme profile, GI ulceration, and levels of test agents.
All animals found dead will be necropsied to confirm that the most likely cause of death was due to intestinal ulcerations.

[2] = system: colonic aberrant crypt foci (ACF); conditions: male F344 rats
Protocol: Male F344 rats at 8 weeks of age treated with AOM (15 mg/Kg BW) and exposed to 2% DSS for three days. […] Further, the inflammation was scored by following below criteria:
ACF form before colorectal polyps and are an indicator of the potential for cancer.

5-LOX = 5-LOX (Rattus norvegicus, UniProt P12527); conditions: two weeks, male F344 rats
Protocol: (§1) Male F344 rats at 8 weeks of age treated with AOM (15 mg/Kg BW) and exposed to 2% DSS for three days. […] Further, the inflammation was scored by following below criteria: […]

COX-1/2 = conditions: two weeks, male F344 rats
Protocol: as §1

mPGES-1 = mPGES-1 (Rattus norvegicus, UniProt Q9JHF3); conditions: two weeks, male F344 rats
Protocol: as §1
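Throughout, for Major Organ Toxicity: gross examination of all organs at necropsy, with liver enzyme profile and GI ulceration assessed in collected tissues and blood.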
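Throughout, for Ulceration (Grade) Colon: gross examination of all organs at necropsy, with liver enzyme profile and GI ulceration assessed in collected tissues and blood.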
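Throughout, for Ulceration (Grade) Small Intestine: gross examination of all organs at necropsy, with liver enzyme profile and GI ulceration assessed in collected tissues and blood.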
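Throughout, for Ulceration (Grade) Stomach: gross examination of all organs at necropsy, with liver enzyme profile and GI ulceration assessed in collected tissues and blood.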

Chain of 5-LOX (P12527 whole entry): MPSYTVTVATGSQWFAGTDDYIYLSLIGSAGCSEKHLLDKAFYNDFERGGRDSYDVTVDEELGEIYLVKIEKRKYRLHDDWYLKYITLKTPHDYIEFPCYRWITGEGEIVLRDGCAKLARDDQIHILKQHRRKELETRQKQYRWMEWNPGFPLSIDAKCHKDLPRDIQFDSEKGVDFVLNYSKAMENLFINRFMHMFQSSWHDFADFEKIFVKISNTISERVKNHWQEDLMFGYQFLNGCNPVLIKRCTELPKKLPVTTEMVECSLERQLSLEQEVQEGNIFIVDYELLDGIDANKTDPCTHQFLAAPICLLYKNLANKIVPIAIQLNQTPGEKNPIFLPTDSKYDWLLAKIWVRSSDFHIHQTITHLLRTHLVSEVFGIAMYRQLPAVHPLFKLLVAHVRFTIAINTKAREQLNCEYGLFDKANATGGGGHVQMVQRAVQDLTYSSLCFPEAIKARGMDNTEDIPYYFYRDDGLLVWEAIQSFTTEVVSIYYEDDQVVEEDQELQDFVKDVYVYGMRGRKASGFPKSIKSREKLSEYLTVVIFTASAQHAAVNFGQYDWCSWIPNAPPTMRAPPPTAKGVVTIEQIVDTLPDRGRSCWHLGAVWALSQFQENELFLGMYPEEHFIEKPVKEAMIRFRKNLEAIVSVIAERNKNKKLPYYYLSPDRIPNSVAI
Chain of mPGES-1 (Q9JHF3 whole entry): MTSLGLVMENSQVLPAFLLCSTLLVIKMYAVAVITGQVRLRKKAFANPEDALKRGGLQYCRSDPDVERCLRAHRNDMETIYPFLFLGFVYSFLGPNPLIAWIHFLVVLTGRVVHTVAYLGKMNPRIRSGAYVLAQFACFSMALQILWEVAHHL

SMILES: CC1(C)Cc2c(-c3ccccc3)c(-c3ccc(Cl)cc3)c(CC(=O)NCC(=O)O)n2C1 [LFA-9, licofelone-glycine]
- Major Organ Toxicity ([1]; 100 ppm in diet, 6 weeks): None
- Ulceration (Grade) Colon ([1]; 100 ppm in diet, 6 weeks): Grade 0
- Ulceration (Grade) Small Intestine ([1]; 100 ppm in diet, 6 weeks): Grade 0
- Ulceration (Grade) Stomach ([1]; 100 ppm in diet, 6 weeks): Grade 0
- Liver enzymes ALKP ([1]; 100 ppm in diet, 6 weeks): 178 ± 32 units/L
- Liver enzymes ALT ([1]; 100 ppm in diet, 6 weeks): 82 ± 15 units/L
- Liver enzymes AST ([1]; 100 ppm in diet, 6 weeks): 75 ± 8.5 units/L
- Liver enzymes LDH ([1]; 100 ppm in diet, 6 weeks): 408 ± 28 units/L
- Major Organ Toxicity ([1]; 200 ppm in diet, 6 weeks): None
- Ulceration (Grade) Colon ([1]; 200 ppm in diet, 6 weeks): Grade 0
- Ulceration (Grade) Small Intestine ([1]; 200 ppm in diet, 6 weeks): Grade 0
- Ulceration (Grade) Stomach ([1]; 200 ppm in diet, 6 weeks): Grade 0
- Liver enzymes ALKP ([1]; 200 ppm in diet, 6 weeks): 184 ± 30 units/L
- Liver enzymes ALT ([1]; 200 ppm in diet, 6 weeks): 98 ± 13 units/L
- Liver enzymes AST ([1]; 200 ppm in diet, 6 weeks): 83 ± 10 units/L
- Liver enzymes LDH ([1]; 200 ppm in diet, 6 weeks): 394 ± 19 units/L
- Major Organ Toxicity ([1]; 400 ppm in diet, 6 weeks): None
- Ulceration (Grade) Colon ([1]; 400 ppm in diet, 6 weeks): Grade 0
- Ulceration (Grade) Small Intestine ([1]; 400 ppm in diet, 6 weeks): Grade 0
- Ulceration (Grade) Stomach ([1]; 400 ppm in diet, 6 weeks): Grade 0
- Liver enzymes ALKP ([1]; 400 ppm in diet, 6 weeks): 187 ± 38 units/L
- Liver enzymes ALT ([1]; 400 ppm in diet, 6 weeks): 93 ± 15 units/L
- Liver enzymes AST ([1]; 400 ppm in diet, 6 weeks): 68 ± 7.5 units/L
- Liver enzymes LDH ([1]; 400 ppm in diet, 6 weeks): 379 ± 29 units/L
- Major Organ Toxicity ([1]; 800 ppm in diet, 6 weeks): None
- Ulceration (Grade) Colon ([1]; 800 ppm in diet, 6 weeks): Grade 0
- Ulceration (Grade) Small Intestine ([1]; 800 ppm in diet, 6 weeks): Grade 0
- Ulceration (Grade) Stomach ([1]; 800 ppm in diet, 6 weeks): Grade 0
- Liver enzymes ALKP ([1]; 800 ppm in diet, 6 weeks): 181 ± 27 units/L
- Liver enzymes ALT ([1]; 800 ppm in diet, 6 weeks): 104 ± 13 units/L
- Liver enzymes AST ([1]; 800 ppm in diet, 6 weeks): 82 ± 11 units/L
- Liver enzymes LDH ([1]; 800 ppm in diet, 6 weeks): 422 ± 43 units/L
- body weight loss or gross histological symptoms of toxicity ([1]; 800 ppm in diet, C57BL/6 mice): do not induce any body weight loss or gross histological symptoms of toxicity
- Major Organ Toxicity ([1]; 1,600 ppm in diet, 6 weeks): Liver
- Ulceration (Grade) Colon ([1]; 1,600 ppm in diet, 6 weeks): Grade 1
- Ulceration (Grade) Small Intestine ([1]; 1,600 ppm in diet, 6 weeks): Grade 0
- Ulceration (Grade) Stomach ([1]; 1,600 ppm in diet, 6 weeks): Grade 1
- Liver enzymes ALKP ([1]; 1,600 ppm in diet, 6 weeks): 288 ± 24 units/L
- Liver enzymes ALT ([1]; 1,600 ppm in diet, 6 weeks): 158 ± 18 units/L
- Liver enzymes AST ([1]; 1,600 ppm in diet, 6 weeks): 132 ± 17 units/L
- Liver enzymes LDH ([1]; 1,600 ppm in diet, 6 weeks): 589 ± 42 units/L
- animals died at the end of six-week exposure ([1]; 1,600 ppm in diet, mice): 3 animals
- colonic ulceration at microscopic level ([1]; 1,600 ppm in diet, mice): Grade 1 to 2
- liver toxicity by gross pathology ([1]; 1,600 ppm in diet, mice): modest liver toxicity
- stomach ulceration at microscopic level ([1]; 1,600 ppm in diet, mice): Grades 2 to 3
- body weight loss as compared to control diet fed mice body weight gain ([1]; 1,600 ppm in diet, six weeks, mice): ~30%
- ulceration ([1]; doses up to 800 ppm in diet): no ulceration
- toxicity and body weight gain ([1]; up to 800 ppm in diet, 6 weeks): does not induce any toxicity; also recorded: did not exhibit toxicity
- 4 or >multi-crypt AC/colon (Mean ± SEM) ([2]; 200 ppm in diet): 23.5 ± 2.1
- % Inhibition (4 or >multi-crypt AC/colon) ([2]; 200 ppm in diet): 30%
- % Inhibition (total ACF/colon) ([2]; 200 ppm in diet): 29.5%
- Total ACF/Colon (Mean ± SEM) ([2]; 200 ppm in diet): 110 ± 6.1
- 4 or >multi-crypt AC/colon (Mean ± SEM) ([2]; 400 ppm in diet): 18.3 ± 2.0
- % Inhibition (4 or >multi-crypt AC/colon) ([2]; 400 ppm in diet): 45.4%
- % Inhibition (total ACF/colon) ([2]; 400 ppm in diet): 44.2%
- Total ACF/Colon (Mean ± SEM) ([2]; 400 ppm in diet): 84 ± 5.3
- 4 or >multi-crypt AC/colon (Mean ± SEM) ([2]; 600 ppm in diet): 13.5 ± 1.7
- % Inhibition (4 or >multi-crypt AC/colon) ([2]; 600 ppm in diet): 61.2%
- % Inhibition (total ACF/colon) ([2]; 600 ppm in diet): 60.5%
- Total ACF/Colon (Mean ± SEM) ([2]; 600 ppm in diet): 62 ± 4.8
- AOM-DSS-Induced 5-LOX (colonic mucosa) (5-LOX; 100 ppm in diet): 14.5%
- AOM-DSS-Induced 5-LOX (colonic mucosa) (5-LOX; 200 ppm in diet): 22.6%
- AOM-DSS-Induced 5-LOX (colonic mucosa) (5-LOX; 400 ppm in diet): 63.7%
- AOM-DSS-Induced 5-LOX (colonic mucosa) (5-LOX; 600 ppm in diet): 74.7%
- AOM-DSS-Induced 5-LOX (colonic mucosa) (5-LOX; 800 ppm in diet): 88.3%
- AOM-DSS-Induced COX-1/2 (colonic mucosa) (COX-1/2; 100 ppm in diet): 3.8%
- AOM-DSS-Induced COX-1/2 (colonic mucosa) (COX-1/2; 200 ppm in diet): 8.9%
- AOM-DSS-Induced COX-1/2 (colonic mucosa) (COX-1/2; 400 ppm in diet): 15.7%
- AOM-DSS-Induced COX-1/2 (colonic mucosa) (COX-1/2; 600 ppm in diet): 31.3%
- AOM-DSS-Induced COX-1/2 (colonic mucosa) (COX-1/2; 800 ppm in diet): 42.6%
- AOM-DSS-Induced mPGES-1 (colonic mucosa) (mPGES-1; 100 ppm in diet): 22.6%^
- AOM-DSS-Induced mPGES-1 (colonic mucosa) (mPGES-1; 200 ppm in diet): 33.7%^
- AOM-DSS-Induced mPGES-1 (colonic mucosa) (mPGES-1; 400 ppm in diet): 58%
- AOM-DSS-Induced mPGES-1 (colonic mucosa) (mPGES-1; 600 ppm in diet): 77%
- AOM-DSS-Induced mPGES-1 (colonic mucosa) (mPGES-1; 800 ppm in diet): 83%
